The source of these data is patent US12377095B2, “Use of ligustrazine nitrone derivatives in treatment and prevention of diabetic complication diseases” (QINGDAO HAILAN PHARMACEUTICALS CO., LTD., priority 2019, dated 2025).

Assay [1] relates to STZ-induced DKD rats. The assay can be described thus: HE staining of kidney tissue, STZ-induced SD rat DKD model. Type of assay: in vivo. As for the experimental part: (§1) Before the injection, the rats were fasted for 12 hours without water. After weighing, the rats were injected with 55 mg/kg STZ intraperitoneally (STZ needs to be injected quickly, and the injection was completed within 10 minutes), and then returned to the cage to ensure that the rats had sufficient drinking water for 24 hours. Rats were injected with an equal volume of citrate buffer (pH 4.5). After STZ injection for 3 weeks, blood was collected from the tail vein, and blood glucose ≥16.7 mmol/L was used as the criteria for the standard of the rats.
(§2) The route of administration is intragastric administration. TBN was administered twice a day (fixed at 9:00-10:00 am and 3:00-4:00 pm), and Losartan was administered once a day (fixed at 9:00-10:00 am) continuously for 6 weeks.
At the end of the experiment, kidney tissues were quickly separated, fixed with 4% paraformaldehyde and embedded in paraffin, serially sliced, 5 μm each, dried at 37° C. for 1 h, and then stained with hematoxylin and eosin (HE). The process is briefly as follows: paraffin sections were taken out of the 65° C. oven and immediately put in xylene to dewax and rehydrated with gradient alcohol, stained with hematoxylin staining solution for 10 minutes, and microscopically controlled alcohol differentiation with 1% hydrochloric acid was performed until the chromatin of the nucleus and the nucleus becomes clear; 1% ammonia water-ethanol solution is blue; 0.5% eosin Y-ethanol solution is stained for 3 min, and finally dehydrated routinely, mounted, and the tissue morphology changes are observed under a light microscope. […] The glomerular volume of rats in the DKD group of the Vehicle group increased, the mesangial area was diffusely widened, the mesangial cells were proliferated, the capillary loops were expanded, the mesangial matrix increased, and the glomerular capillary basement membrane was irregularly thickened. Renal pathological changes such as vacuole deformation, shedding of renal tubular epithelial cells and infiltration of a large number of inflammatory cells (FIG. 9A).

In assay [2] the test system is db/db mice. The assay can be described thus: Serum iron content of db/db mice. Type of assay: in vivo, mouse. The arrangement: iron content in the serum: unit not given here. The conditions noted are these: for iron content in the serum: 6 weeks, db/db model group 28.13±4.46. An excerpt: (§3) db/db mice are congenital obese type 2 DKD mice with spontaneous mutations in the leptin receptor (Leptin receptor, Lepr) due to a point mutation in the leptin receptor gene GT located on chromosome 4. The course of polyphagia, polyuria, diabetes and hyperglycemia is similar to that of humans, and it is currently the most widely used type 2 spontaneous animal model of DKD. The db/db mice have a series of complications with the aggravation of diabetes. The main pathological changes of renal tissue are the expansion of the glomerular mesangial interstitium, the thickening of the glomerular basement membrane, and the excessive accumulation of extracellular matrix. However, the glomerular mesangium of db/db mice changes relatively slowly, and the glomerular mesangium will not be dissolved or nodular glomerulosclerosis, and there is no progressive renal insufficiency.
(§4) Six-week-old db/db mice were purchased, and start the administration after adaptive feeding for 1 week (i.e., 7-week-old). TBN is administered twice a day (fixed by starting from 9:00-10:00 am and 3:00-4:00 pm, with an interval of 6 hours), and the positive control drug Losartan was administered once a day (fixed at 9:00-10:00 am) for 6 weeks.
At the end of the experiment, serum iron content was measured by using automatic biochemical analyzer.

Assay [3] has as its system db/db mice. In words: Electron microscopy of kidney tissue in db/db mice. Type of assay: in vivo, mouse.
Description: as §3, §4
After the mice were executed, the renal cortex was quickly taken with sharp blade (performed on ice); fixed with 2.5% glutaraldehyde (pH 7.4) at 4° C. for 6 h; then fixed for 2 h in a stationary liquid having 1:1 of 0.2 mmol/L PBS and 2% osmic acid, and dehydrated with gradient acetone at 4° C., 10 min for each of 50%, 70%, 90% acetone, then dehydrated with 100% acetone at room temperature twice, each time 15 min; in 1:1 acetone and Epon812 epoxy resin embedded mixed liquid, soaked at room temperature for 30 min; then dipped through the pure furnishings overnight, the embedding agent was made enveloping into tissue blocks completely to replace the dehydrating agent; the samples were embedded in the embedder for ultra-thin slicing, placed at 35° C. for 12 h; placed at 45° C. for 12 h; placed at 60° C. for 48 h; placed in a 37° C. oven for 36 h, in a 60° C. oven for 36 h; 1.5 μm semi-slice was prepared with an ultra-thin slicer; positioning under optical microscope, a trapeter having a top area of about 1 mm^2 was shaped to prepare 60-70 nm thick ultra-thin slices; dyed in dark with acetate hydroxide liquid for 10 min, and dyed in lead-stained citrate for 10 min.

For assay [4], the system named is STZ-induced DKD rats. In words: Serum biochemical parameters of STZ-induced DKD rats. The assay is classed as in vivo, rat. To be noted: six weeks after administration, dose-dependent. Here is the method: SD rats (200±10 g) were used as model animals, which were fasted for 12 h before injection. STZ was dissolved in citrate buffer at 1% concentration, and rats were fasted and intraperitoneally injected with 55 mg/kg STZ and placed in the cage, the rats being ensured with adequate water intake for 24 h. STZ injections need to be fast and complete within 10 minutes of injection. The normal control group was injected with an equal volume of pH 4.5 citric acid-sodium citrate buffer. The state of the animals (multiple drinking and polyuria) was observed. After 3 weeks of STZ injection, blood was collected from the tail vein, and fasting blood glucose ≥16.7 mmol/L was measured as the standard for diabetic nephropathy in rats.
DKD rats were randomly assigned to 6 groups and given with different drugs. After 6 weeks of administration, the experiment was terminated and the protective effect of the drug on DKD rats was observed.
Six weeks after the administration, the rats were anesthetized, and the blood was taken from the abdominal aorta, and, after standing for 1 hour, was centrifuged at 3000 rmp for 10 min and stored at −70° C. Serum levels of creatinine, urea nitrogen, cholesterol and triglycerides were measured using an automated biochemical analyzer.

The test system of assay [5] is STZ-induced DKD rats. In words: Serum iron content of STZ-induced DKD rats. The assay is classed as in vivo, rat. As for the experimental part:
as §1, §2
At the end of the experiment, after rats were anesthetized, blood was taken from the abdominal aorta. After standing for 1 hour, the rats were centrifuged at 3000 rpm for 10 minutes and stored in aliquots at −80° C. An automatic biochemical analyzer was used to detect the content of iron ions in the serum.

Regarding `Cc1nc(C)c(/C=[N+](\[O-])C(C)(C)C)nc1C` [TBN], in the assay on STZ-induced DKD rats [1] (60 mg/kg i.g. twice/day, 6 weeks), the “renal pathological changes (HE)” value is listed as “improved the most”. Further, the “renal pathological changes (HE)” value with STZ-induced DKD rats [1] (each dose group of TBN (10, 30, 60 mg/kg i.g. twice/day, 6 weeks)) is listed as “improved”. The “iron content in the serum” value in the assay on db/db mice [2] (10 mg/kg) is listed as 30.84±5.92. Further, the “iron content in the serum” value in the assay with db/db mice [2] (30 mg/kg) came to 36.20±11.89. For the same compound, the “effect of increasing iron ions compared with positive control drug” value in the assay on db/db mice [2] (each dose group of TBN vs Losartan) is given as “stronger than the positive control drug group”. Besides, in the assay with db/db mice [3] (10 mg/kg), the podocyte fusion result is reported as “slight podocyte fusion” and the “proliferation of the glomerular membrane” value was “no significant proliferation”. For the same compound, the “thickness of the glomerular base film” value with db/db mice [3] (10 mg/kg, 6 weeks (TBN P<0.05; Losartan P<0.01)) is listed as “decrease”. For the same compound, in the assay on db/db mice [3] (30 mg/kg), the podocyte fusion entry is on record as “podocyte fusion in small area” and the “proliferation of the glomerular measuring membrane” value is “no significant proliferation”. For the same compound, the “thickness of the glomerular base film” value in the assay on db/db mice [3] (30 mg/kg, P<0.01 vs db/db) is recorded as “significantly reduced”. Further, in the assay with db/db mice [3] (60 mg/kg), the podocyte fusion result is reported as “no obvious segmental fusion” and the “proliferation of glomerular membranes” value was “no significant proliferation”. For the same compound, the “thickness of the glomerular base film” value in the assay with db/db mice [3] (60 mg/kg, P<0.01 vs db/db) is “significantly reduced”. Moreover, in the assay on STZ-induced DKD rats [4], the serum cholesterol entry is on record as “significantly reduce”, the serum creatinine result is “significantly reduce”, the serum triglyceride result is “significantly reduce” and the serum urea nitrogen entry is listed as “significantly reduce”. Besides, the “increase in serum iron content” value with STZ-induced DKD rats [5] (TBN high dose group, P<0.05 vs Vehicle) is on record as “the most significant”. In addition, in the assay with STZ-induced DKD rats [5] (each administration group of TBN (10, 30, 60 mg/kg), dose-dependent), the serum iron content result is listed as “increased”.
